The target in one assay is T1, human LXRα (Homo sapiens, UniProt Q13133).
T1 construct: biotin (biotinylated; biotinylation tag not described); made in house; host or cells: E. coli
T1 sequence (Q13133 1-447): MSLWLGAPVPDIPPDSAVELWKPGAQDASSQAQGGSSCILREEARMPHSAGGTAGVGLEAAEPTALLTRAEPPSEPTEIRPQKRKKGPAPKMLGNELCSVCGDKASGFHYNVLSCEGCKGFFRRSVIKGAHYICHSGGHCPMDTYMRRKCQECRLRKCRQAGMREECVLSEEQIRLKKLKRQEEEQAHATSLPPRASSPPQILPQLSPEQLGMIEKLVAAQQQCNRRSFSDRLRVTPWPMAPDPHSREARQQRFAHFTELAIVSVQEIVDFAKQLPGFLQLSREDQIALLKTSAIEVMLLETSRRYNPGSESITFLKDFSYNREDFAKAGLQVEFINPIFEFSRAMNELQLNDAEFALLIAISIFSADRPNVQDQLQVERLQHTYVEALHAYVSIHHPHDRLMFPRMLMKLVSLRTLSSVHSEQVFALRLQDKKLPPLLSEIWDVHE
Kind of assay: Ligand-binding test procedure for human LXRα (3H T0901317 competition, flash plates). The settings on record: biotinylated hLXRα, tracer 3H T0901317. In a few lines:
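Competition binding of test ligands against 5 nM ³H tracer solution (pre-mix concentration) on biotinylated hLXRα from E. coli extract, captured on streptavidin flash plates (Bmax ~4000 cpm). Ligand dilution series made in DMSO. Incubated overnight at +4 °C; bound radioactivity counted after washing.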

For a further assay, the system named is ABCA1 gene. Kind of assay: Quantitative analysis of ABCA1 gene regulation in THP-1 cells (real-time RT-PCR). The class given is cell-based, human. The settings on record: differentiated THP-1 cells, ABCA1 mRNA, 18 hrs; for EC50: Homo sapiens; for THP cells ABCA1 Ag. (%): LXR agonist reference at 1.0 uM as positive control. The protocol:
Quantitative Analysis of ABCA1 Gene Regulation in THP-1 Cells. […] Materials and Methods Cell culture: The THP-1 monocytic cell line (ATCC # TIB-202) was obtained from American Type Culture Collection (Manassas, Va.) and cultured in RPMI 1640 medium (Gibco, Carlsbad, Calif.) containing 10% FBS, 2 mM L-glutamine, and 55 uM beta-Mercaptoethanol (BME). […] Louis, Mo.) for three days to induce differentiation into adherent macrophages. Differentiated THP-1 cells were treated with test compounds or ligands dissolved in DMSO (Sigma, D-8779) in culture medium lacking phorbal ester. […] L., J. Med. Chem. (2000), 45:1963-1966.). Results of antagonist analysis are expressed as % antagonism and IC50 (in μM).

In the next assay the target is T2, human LXRβ (Homo sapiens, UniProt P55055).
T2 construct: biotin (biotinylated; biotinylation tag not described); made in house; host or cells: E. coli
T2 sequence (P55055 1-460): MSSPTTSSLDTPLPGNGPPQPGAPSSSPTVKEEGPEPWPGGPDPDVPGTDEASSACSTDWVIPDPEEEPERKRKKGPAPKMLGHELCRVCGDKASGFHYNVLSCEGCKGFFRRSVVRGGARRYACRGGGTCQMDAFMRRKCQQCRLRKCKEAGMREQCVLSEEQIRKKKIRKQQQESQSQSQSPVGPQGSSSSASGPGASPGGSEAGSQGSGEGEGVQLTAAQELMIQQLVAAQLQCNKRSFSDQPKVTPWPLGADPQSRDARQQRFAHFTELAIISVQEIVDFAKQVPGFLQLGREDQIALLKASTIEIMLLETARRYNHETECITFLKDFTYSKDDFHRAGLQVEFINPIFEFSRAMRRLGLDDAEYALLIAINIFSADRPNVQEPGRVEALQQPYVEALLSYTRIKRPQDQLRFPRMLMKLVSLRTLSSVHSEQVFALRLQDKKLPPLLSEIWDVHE
Nature of the assay: Ligand-binding test procedure for human LXRβ (3H T0901317 competition, flash plates). The settings on record: for Binding ratio a/b: IC50 (μM) LXRα binding/IC50 (μM) LXRβ binding; for IC50: biotinylated hLXRβ, tracer 3H T0901317.

As to `O=C(O)Cc1cccc2c(NCc3cccc(-c4ccnc5c(C(F)(F)F)cccc45)c3)cccc12` [Example 1, [5-({3-[8-(Trifluoromethyl)quinolin-4-yl]benzyl}amino)-1-naphthyl]acetic acid], the half-inhibitory concentration (IC50) at human LXRα is 745 nM. Moreover, in the assay with ABCA1 gene, the EC50 worked out at 3760 nM and the “THP cells ABCA1 Ag. (%)” value amounted to 91.15%. At human LXRβ, the Binding ratio a/b is recorded as 48 and the IC50 is 15 nM.
In turn, `Cc1cnc2c(C(F)(F)F)cccc2c1-c1cccc(COc2cccc3c(CC(=O)O)cccc23)c1` [Example 9] showed an IC50 on human LXRα of 294 nM. Besides, in the assay with ABCA1 gene, the EC50 was 1140 nM and the “THP cells ABCA1 Ag. (%)” value is recorded as 122.6%. Moreover, on human LXRβ, the Binding ratio a/b worked out at 22 and the IC50 was 13 nM.
The matching figures for `O=C(O)Cc1cccc2c(OCc3cccc(-c4ccnc5c(C(F)(F)F)cccc45)c3)cccc12` [Example 5, [5-({3-[8-(Trifluoromethyl)quinolin-4-yl]benzyl}oxy)-1-naphthyl]acetic acid]: 779 nM, 3390 nM, 69.4%, 30 and 26 nM.
The corresponding values for `Cc1cnc2c(C(F)(F)F)cccc2c1-c1cccc(CNc2cccc3c(CC(=O)O)cccc23)c1` [Example 13, [5-({3-[3-methyl-8-(trifluoromethyl)quinolin-4-yl]benzyl}amino)-1-naphthyl]acetic acid] are 211 nM, 2630 nM, 107.8%, 22 and 10 nM.
Regarding `O=C(O)c1cnc(Oc2cccc(-c3c(Cc4ccccc4)cnc4c(C(F)(F)F)cccc34)c2)cn1` [Example 121, 5-{3-[3-Benzyl-8-(trifluoromethyl)quinolin-4-yl]phenoxy}pyrazine-2-carboxylic acid], the IC50 at human LXRα stood at 1710 nM; at human LXRβ, 2300 nM. In addition, the Binding ratio a/b at human LXRβ stood at 1.
Take `COc1ccc(C(=O)O)cc1OCc1cccc(-c2c(Cc3ccccc3)cnc3c(C(F)(F)F)cccc23)c1` [Example 98, 3-({3-[3-benzyl-8-(trifluoromethyl)quinolin-4-yl]benzyl}oxy)-4-methoxybenzoic acid]: the IC50 at human LXRα was found to be 5200 nM. Besides, at human LXRβ, the Binding ratio a/b came out at 2 and the IC50 turned out to be 2500 nM.
`O=C(O)c1c(NCc2cccc(-c3c(Cc4ccccc4)cnc4c(C(F)(F)F)cccc34)c2)cccc1C(F)(F)F` [Example 49, 2-({3-[3-benzyl-8-(trifluoromethyl)quinolin-4-yl]benzyl}amino)-6-(trifluoromethyl)benzoic acid]: on human LXRα, the half-maximal inhibitory concentration (IC50) amounted to 393 nM. At human LXRβ, the Binding ratio a/b amounted to 6 and the IC50 is 66 nM.
The matching figures for `O=C(O)c1ccc(NCc2cccc(-c3c(Cc4ccccc4)cnc4c(C(F)(F)F)cccc34)c2)cc1Cl` [Example 87, 4-({3-[3-benzyl-8-(trifluoromethyl)quinolin-4-yl]benzyl}amino)-2-chlorobenzoic acid]: 72 nM, 3 and 28 nM.
The corresponding values for `Cc1cnc2c(C(F)(F)F)cccc2c1-c1cccc(CNc2cc(F)ccc2C(=O)O)c1` [Example 106, 4-fluoro-2-({3-[3-methyl-8-(trifluoromethyl)quinolin-4-yl]benzyl}amino)benzoic acid] are 7280 nM, 1 and 5290 nM.
Turning to `O=C(O)c1ccc(OCc2cccc(-c3c(Cc4ccccc4)cnc4c(C(F)(F)F)cccc34)c2)c(F)c1` [Example 84, 4-({3-[3-benzyl-8-(trifluoromethyl)quinolin-4-yl]benzyl}oxy)-3-fluorobenzoic acid], the IC50 on human LXRα was determined as 864 nM; at human LXRβ, 319 nM. For the same compound, the Binding ratio a/b at human LXRβ was found to be 3.
The matching figures for `Cc1cc(NCc2cscc2-c2c(Cc3ccccc3)cnc3c(C(F)(F)F)cccc23)c(C)cc1CC(=O)O` [Example 64, {4-[({4-[3-benzyl-8-(trifluoromethyl)quinolin-4-yl]-3-thienyl}methyl)amino]-2,5-dimethylphenyl}acetic acid]: 3520 nM, 813 nM and 4.
As for `O=C(O)Cc1ccc2c(OCc3cccc(-c4c(Cc5ccccc5)cnc5c(C(F)(F)F)cccc45)c3)cccc2c1` [Example 69, [5-({3-[3-benzyl-8-(trifluoromethyl)quinolin-4-yl]benzyl}oxy)-2-naphthyl]acetic acid], at human LXRα, the IC50 was found to be 276 nM. Also, on human LXRβ, the Binding ratio a/b is given as 4 and the IC50 turned out to be 71 nM.
As to `O=C(N[C@@H](Cc1c[nH]cn1)C(=O)O)c1cccc(COc2cccc(-c3c(Cc4ccccc4)cnc4c(C(F)(F)F)cccc34)c2)c1` [Example 72, N-[3-({3-[3-benzyl-8-(trifluoromethyl)quinolin-4-yl]phenoxy}methyl)benzoyl]histidine], the figures for the IC50 at human LXRα and at human LXRβ were 1100 nM and 309 nM, respectively. Also, the Binding ratio a/b at human LXRβ was determined as 4.
`Cc1cc(C(=O)O)c(C)cc1NCc1cccc(-c2c(Cc3ccccc3)cnc3c(C(F)(F)F)cccc23)c1` [Example 12, 4-({3-[3-Benzyl-8-(trifluoromethyl)quinolin-4-yl]benzyl}amino)-2,5-dimethylbenzoic acid] gave a half-inhibitory concentration (IC50) on human LXRα of 132 nM. In addition, at human LXRβ, the Binding ratio a/b was found to be 11 and the half-inhibitory concentration (IC50) amounted to 12 nM.
`O=C(O)Cc1cccc2c(NCc3cncc(-c4c(Cc5ccccc5)cnc5c(C(F)(F)F)cccc45)c3)cccc12` [Example 3, {5-[({5-[3-Benzyl-8-(trifluoromethyl)quinolin-4-yl]pyridin-3-yl}methyl)amino]-1-naphthyl}acetic acid] came in with a 50% inhibitory concentration (IC50) on human LXRα of 964 nM. Also, in the assay on ABCA1 gene, the concentration giving a half-maximal response (EC50) came out at 4760 nM and the “THP cells ABCA1 Ag. (%)” value was 69.1%. Besides, on human LXRβ, the Binding ratio a/b came to 32 and the half-inhibitory concentration (IC50) is 30 nM.

These data come from patent US20090069373A1, “Quinoline Acids” (Wyeth, priority 2007, published 2009).
